Results on 3 molecules are retold here after patent US20220168329A1, “COMBINATORIAL DRUG TREATMENT OF CANCER” (University of Virginia Patent Foundation, priority 2019, published 2022).

By IC50 is commonly meant the concentration at which inhibition is half-maximal. High values mean a need for much substance, low ones inhibition by little substance.

Experiment [1] relates to PRMT5. Description: Western blot of global SDMA in cells. In kind it is cell-based, Human. The note with it: increasing concentrations (nM). The method, then:
(§1) Cells were washed with cold PBS and lysed in RIPA buffer (Cell Signaling Technology). After centrifugation at 14,000 rpm for 15 minutes at 4° C., the supernatants were collected and the protein concentrations were measured using BCA protein assay reagent (BIO-RAD). Subsequently, equal amounts of proteins were separated in NuPAGE 4-12% Bis-Tris gradient gel (Invitrogen #NP0335) and transferred onto nitrocellulose membranes (Invitrogen #B301002). After blocking with 5% milk, the membranes were then probed at 4° C. overnight with various primary antibodies: anti-γ-H2AX (Cell Signaling), anti-phospho-Chk1 (Ser345) (Cell Signaling), anti-phospho-Chk2 (Thr68) (Cell Signaling), anti-PRMT5 (Abcam), anti-RPA1 (Abcam), anti-phospho-RPA2 (S4/S8) (Bethyl Laboratories), anti-RPA2 (Ab-2) (Calbiochem), cleaved caspase-3 (Cell Signaling), and anti-β-actin (Sigma); washed with TBST (20 mM Tris, 150 mM NaCl, 0.1% polysorbate 20; pH 7.6); and incubated with horseradish peroxidase (HRP)-conjugated secondary antibodies (Promega) at room temperature for 1 hour. Finally, after washing with TBST, the antibody-bound membranes were treated with enhanced chemiluminescent Western blot detection reagents (GE Healthcare) and visualized with an x-ray film (GE Healthcare).
On the technique in general: In western blotting, separated proteins are transferred to a membrane and probed.

For experiment [2], the system named is WT and PRMT5 KO cells. Nature of the experiment: Western blot of Caspase-3 cleavage (apoptosis) in WT and PRMT5 KO cells. In kind it is cell-based, Human. Conditions: WT vs PRMT5 KO cells, increasing doses (nM). The method, then:
as §1

The test system of experiment [3] is HeLa DR13-9 cell line. Description: I-SceI reporter assay, homology-directed repair (HDR). It counts as cell-based, Human. Conditions: Gem 250 nM and/or EPZ015666 500 nM, 24 hours. The method, then:
(§2) NHEJ and HR assays to examine the repair efficiency of I-SceI inducible-double strand breaks (DSBs) were performed using NHEJ/DsRed293B and HeLa DR13-9 cell lines, respectively, as previously described with slight modifications. Briefly, 3×10^5 cells were plated on 6-well dishes and 2 μg I-SceI expression vector […] was transfected using Lipofectamine2000 (Invitrogen). 24 hours post-transfection, the indicated amount of gemcitabine and/or EPZ015666 was incubated with cells for 24 hours. The DsRed- and GFP-expressing cells were counted in flow cytometric analysis (BD FACS Calibur and CellQuest Pro) by the FL2 and FL1 channels for NHEJ and HR repair efficiency, respectively. […] To this end, we used I-SceI endonuclease-based genetic reporters where relative efficiency of DSB repair by either pathway could be robustly quantified. […] However, exogenous expression of I-SceI leads to a DSB repair and creation of either dsRED+ or GFP+ cells, which can be quantified to assess relative NHEJ or HDR repair efficiencies by quantifying the percentage of dsRED+ or GFP+ cells upon I-SceI expression. […] We then assessed whether PRMT5 inhibitor alone or in combination with Gem results in differential NHEJ activity. […]

Experiment [4] concerns NHEJ/DsRed293B cell line. Description: I-SceI reporter assay, NHEJ. In kind it is cell-based, Human. Conditions: Gem 250 nM and/or EPZ015666 500 nM, 24 hours. The method, then: as §2
Background: A reporter such as luciferase makes a cellular process visible.

Experiment [5] has as its system xenograft tumors. Nature of the experiment: γ-H2AX and SDMA levels in extracted tumor tissues (IHC, Western blot). It counts as in vivo, mice. The method, then: as §1, with “Healthcare). We also extracted tumors to analyze their morphology and molecular structure through H&E and IHC for selected markers. […] To assess whether the combination treatment abolished PRMT5 function in vivo, we evaluated the overall levels of the γ-H2AX and the symmetric […] of arginine (SDMA) in WT tumors, PRMT5 KO tumors as well as single-agent and combination-treated WT tumors.” for “Healthcare).”

Experiment [6] deals with WT and PRMT5 knockout (KO) PDAC cells (mPanc96, PANC-1). Description: MTT cell viability assay, WT vs PRMT5 KO clones. The note with it: Homo sapiens. In kind it is cell-based. The method, then:
PDX366, mPanc96, and PANC-1 cells were seeded in a flat-bottom 96-well plate (Corning) in triplicate at a density of 1-2×10^3 cells per well. The following day, cells were treated with gemcitabine (GEMZAR; Eli Lilly) and EPZ015666 (GSK3235025; SelleckChem) or EPZ015938 (GSK3326595; ChemieTek) for 4-5 days prior to MTT (3-(4,5-dimethylthiazolyl)-2,5-diphenyltetrazolium bromide) to determine effects of drugs on cell viability. Culture media were replaced with fresh RPMI, which had 10% FBS and 10% MTT (5 mg/mL) and incubated for 4 hours in a humidified (37° C., 5% CO2) incubator. 100 μL MTT solvent (10% SDS in 0.01 M HCl) was added to each well, and cells were incubated overnight. The absorbance was read at 595 nm.
To better study the role of PRMT5 in the cellular response to Gem, we generated multiple single KO clones in two additional pancreatic cancer cell lines (mPanc96 and PANC-1) (FIG. 2A). […] However, the clones with even partial PRMT5 depletion were nearly an order of magnitude more sensitive to Gem compared to wild-type (WT) clones (4-5 μM vs. ˜50 μM IC50) as measured by cell viability assay (FIG. 2B).
A general note: Formazan colour is commonly taken as a measure of viable cells.

The test system of experiment [7] is mPanc96 and PANC-1 cells. Nature of the experiment: Crystal violet colony formation assay. In kind it is cell-based, Human. The method, then: Pancreatic cancer cells were seeded in a flat-bottom 12-well plate (Corning) at a density of 1-2×10^3 cells per well. The following day, cells were treated with gemcitabine and EPZ015666 or EPZ015938 for two weeks. Culture media were replaced every week with fresh medium in the presence of drugs. Wells were washed with PBS, then stained for 30 min with crystal violet solution (0.4% crystal violet, 10% formaldehyde, 80% methanol). After staining, wells were washed once with PBS and water. The plate was dried out overnight and imaged using a scanner. Colonies were measured and analyzed with ImageJ (National Institutes of Health).

Experiment [8] has as its system Pancreatic cancer cells. Nature of the experiment: BrdU incorporation flow cytometry cell cycle analysis. The note with it: Gem 250 nM. In kind it is cell-based, Human. The method, then:
Pancreatic cancer cells were treated with gemcitabine and EPZ015666 or EPZ015938, incorporated with BrdU (Sigma) for 1 hour and then fixed by 70% ethanol. BrdU staining was performed according to the manufacturer's instructions (BD Biosciences, Franklin Lakes, N.J., USA). Briefly, the fixed cells were washed with PBS and then resuspended in 2 N HCl for 20 min to denature the DNA. After washing with 0.1 M Na2B4O7, pH 8.5, to stop acid denaturation, the cells were resuspended and washed with 180 μL 0.5% polysorbate 20 (Sigma) with 1% normal goat serum (NGS) (Dako, Glostrup, Denmark) in PBS. Then, the cells were incubated with Alexa Fluor 647-conjugated anti-BrdU (mAb) (Invitrogen) for 1 hour at room temperature in the dark. After washing with PBS, the cells were resuspended in 2 μg/mL propidium iodide (PI) (Sigma) in PBS plus RNase, incubated at 37° C. for 30 min in the dark, and then analyzed by FACSCalibur flow cytometer (Becton-Dickinson, San Jose, Calif., USA).

Experiment [9] relates to PDAC cells. Nature of the experiment: Western blot of DNA damage and cell cycle checkpoint markers and RPA2. Conditions: time-course, KO cells compared to WT cells. It counts as cell-based, Human. The method, then: as §1
The subject of experiment [10] is mPanc96 cells. Nature of the experiment: γ-H2AX immunofluorescence staining. It counts as cell-based, Human. The method, then: Cells grown on glass coverslips (VWR) were rinsed with PBS, and then fixed in 4% formaldehyde for 15 min. The cells were subsequently treated with 0.2% Triton X-100 in PBS for 10 min. After blocking with 2% BSA in PBS containing 5% FBS at RT for 30 minutes, cells were incubated with an appropriate primary antibody γ-H2AX (Cell Signaling) for 2 hours. Then the cells were washed with PBS and incubated for 1 hour with secondary antibody [Alexa Fluor-488 goat anti-mouse immunoglobulin G (IgG) (H+L) conjugate or anti-rabbit IgG (H+L) conjugate (Invitrogen)]. After washing with PBS, the coverslips were dried, and then reversely covered onto slides (Fisher Scientific) by adding mounting medium with 4′,6-diamidino-2-phenylindole dihydrochloride (DAPI) (Vector Laboratories). A LSM-710 confocal microscope (Zeiss) was used to obtain fluorescence images.

Experiment [11] has as its system mPanc96 cells. Description: Comet assay (DNA strand breaks). The note with it: PRMT5 KO or PRMT5-inhibited cells treated with Gem vs WT and control-treated cells. It counts as cell-based, Human. The method, then: The comet assay measures DNA damage in individual cells. It was performed according to the instructions of the OxiSelect Comet Assay Kit (Cell Biolabs). Briefly, microscope slides were first covered with a normal melting point agarose to create a base layer. Then, 1-2×10^5 cells were embedded into 75 μL of low-melting-point agarose at 37° C. and the gel was cast over the first agarose layer. Then slides were immersed into a lysis buffer and kept for 1 hour at 4° C. After cell lysis, the slides were electrophoresed in alkaline electrophoresis buffer (300 mM NaOH, 1 mM EDTA, pH 13). The slides were then stained with Vista Green DNA dye. Comet tails were measured using Image J.

Experiment [12] relates to WT and PRMT5 KO mPanc96 tumors. Description: Xenograft of WT and PRMT5 KO mPanc96 cells treated with Gem. It counts as in vivo, nude mice. The note with it: Gem 50 mg/kg or 100 mg/kg i.p.
Experimental: To develop xenograft tumors, Control sgRNA infected WT cells and PRMT5-KO cells were subcutaneously injected into the dorsal flanks of 8 week-old nude mice, which were obtained from the Jackson Laboratory (Bar Harbor, Me., USA). When the tumors were visible (approximately 30 mm^3 in volume), the mice received respective gemcitabine treatments via intraperitoneal (i.p.) injection. After weekly monitoring, time to appearance of the tumor was recorded, and the tumor volume was measured by caliper. The tumor volume was calculated as follows: volume=longest tumor diameter×(shortest tumor diameter) 2/2. After 35 days of treatment, the mice were euthanized by CO2 inhalation, and the tumor tissues were collected for further analyses. […] Initially, we tested whether tumors formed by WT and PRMT5 KO cells were differentially sensitive to Gem treatment. To be able to better compare the tumors from these two genetic backgrounds, we injected 5×10^5 WT mPanc96 cells in the left flank and the same number of the PRMT5 KO cells in the right flank of the same mouse. This strategy enabled us to compare the two tumors grown in the same mouse. After one week of tumor formation, the mice were randomly divided into three groups where one received control, and the other two received two separate Gem doses (50 mg/kg or 100 mg/kg).

`O=C(NC[C@H](O)CN1CCc2ccccc2C1)c1cc(NC2COC2)ncn1` [EPZ015666]: in experiment [1], the “global SDMA” value is recorded as “significantly inhibits global SDMA”. The “apoptosis (caspase-3 cleavage)” value in experiment [2] is recorded as “significant apoptosis (caspase-3 cleavage) selectively in WT cells but not in PRMT KO cells”. Moreover, the HDR activity entry in [3] is reported as “significantly inhibits the HDR activity”. Besides, the NHEJ activity entry in [4] was “significant increase in NHEJ activity”. In [5] (Western blot of tumor tissues), the “overall SDMA levels in tumors” value is reported as “lower overall levels of SDMA”.

`Nc1ccn([C@@H]2O[C@H](CO)[C@@H](O)C2(F)F)c(=O)n1` [Gem, 2′,2′-difluoro 2′-deoxycytidine]: the half-maximal inhibitory concentration (IC50) was 4 to 5 µM in [6] (clones with even partial PRMT5 depletion (PRMT5 KO)) and roughly 50 µM in experiment [6] (wild-type (WT) clones). In experiment [7] (PRMT5 KO clones compared to WT cells), the “sensitivity to Gem in longer-term colony formation” value is reported as “significantly more sensitive”. In addition, the cell cycle position result in [8] (PRMT5 KO cells compared to WT cells) was “significantly higher number of G2/M cells”; in experiment [8] (WT cells, EPZ015666 500 nM), “partial delay in cell cycle with a substantial accumulation of cells in S-phase and partial increases in G2/M cells”. The “phospho-Chk1, γ-H2AX and phospho-RPA2 activation” value in [9] was “sustained and stronger”. The “time to strong γ-H2AX foci post Gem treatment” value in [10] (PRMT5 KO cells, Gem 250 nM) is 4 h. In experiment [10] (WT cells, same concentration of Gem), the “time to similar levels of γ-H2AX foci” value is 48 to 72 h. Besides, in experiment [10] (over 72 hours, PRMT5 KO vs WT cells, Gem treatment), the “γ-H2AX foci formation levels” value is “significantly higher levels of γ-H2AX”. Besides, the comet tail length result in [11] is on record as “significantly longer comet tail”. In addition, the HDR activity entry in [3] is “significantly inhibits the HDR activity”. The NHEJ activity result in [4] is given as “significant increase in NHEJ activity”. For the same molecule, the tumor volume result is reported as “most significant reduction of tumor volumes” in experiment [12] (PRMT5 KO tumors) and “notable reduction of WT tumors” in experiment [12] (WT tumors). Also, the “γ-H2AX staining (IHC) in tumors” value in experiment [5] (PRMT5 KO tumors vs WT tumors treated with Gem) was “significantly more γ-H2AX staining”. Further, the γ-H2AX in tumors entry in experiment [5] (Western blot, PRMT5 KO tumors) was “significantly activated”.

As to `CC(=O)N1CCC(Nc2cc(C(=O)NC[C@H](O)CN3CCc4ccccc4C3)ncn2)CC1` [EPZ015938], the “growth inhibition activity on colony formation” value in experiment [7] (single agent, compared with the other PRMT5 inhibitor) was “substantially more growth inhibition activity”.
